Experimental data: patent publication US4704403A, “3-(2,2,2-trisubstituted hydrazinium) propionates” (priority 1983, dated 1987)

Legend:
[1] = system: Angiotension; test: Effect on vegetative responses: angiotensin; assay type: in vivo, cats; details: dose 5 (unit not given)
[2] = system: spontaneously hypertensive rats of the Akamoto-Aoki line; test: Hypotensive activity on spontaneously hypertensive rats at a single peroral administration; assay type: in vivo; details: for Systolic arterial pressure: ethyl 40 mg/kg (initial 198), allyl 50 mg/kg (initial 184), benzyl 40 mg/kg (initial 196); for Systolic arterial pressure, percent in parentheses (decrease from initial): ethyl 40, allyl 50, benzyl 40 mg/kg
[3] = system: hypertensive male rats of the Akamoto-Aoki line; test: Variation of arterial pressure upon intraperitoneal administration to hypertensive rats; assay type: in vivo
Description: The study of hypotensive properties of the compounds of this invention has been carried out of hypertensive male rats of the Akamoto-Aoki line aged 25-30 weeks. The animals were divided into groups (7-10 rats in each) and for 2 weeks before the beginning of the experiment they were subjected to an every-day training for adaptation to the unit for measurements of the arterial pressure. The systolic and diastolic arterial pressure were measured indirectly on the tail artery. The level of the arterial pressure prior to administration of the test compounds was measured by way of a triple determination thereof--2 days, one day and right before the administration of the preparation. The compounds were administered intraperitoneally in the form of a 2.5% aqueous solution or a 2.5% suspension in Twin-80 in the dose of 50 mg/kg. The measurement of the arterial pressure was effected 30 minutes, 1, 2, 3 and 4 hours and in some cases 24 hours after the administration of the preparation. For a number of compounds featuring a high efficiency, also determined was the dose causing reduction of the arterial pressure by 30% as compared with the starting level (ED30). The statistical processing of the data obtained was carried out using the Student certainty criterion.

[4] = Acute toxicity upon intraperitoneal administration to white mice; assay type: in vivo; details: mouse, in vivo, ip, 14 days observation, average values with confidential limits at P=0.05
Description: (§1) The acute toxicity of the compounds according to the present invention was studied on white mice of both sexes with a mass of 20-25 g. A saturated aqueous solution of the compounds or a suspension in Tween-80 was administered to the animals intraperitoneally. The observation over the animals was carried out for 14 days. The results obtained were processed following the Litchfield-Wilkoxon method. As it follows from the data shown in Table 5 hereinbelow, the studied compounds have a very low acute toxicity, thus providing a large spectrum of the therapeutic effect.

[5] = system: white mice; test: as above; assay type: in vivo; details: i.p.
Description: as §1

[6] = system: spontaneously hypertensive rats of the Akamoto-Aoki line; test: Systolic arterial pressure of spontaneously hypertensive rats upon a repeated peroral administration; assay type: in vivo
Description: Thus, after a four-days course of administration (once a day, per os) of the compounds according to the present invention an essential reduction of the arterial pressure in the test animals is observed which is not returned to the initial level even an expiration of four days after discontinuation of the preparation administration, whereas the hypotensive effect of nifedipine is manifested for only 8 hours.

[7] = system: arrhythmia caused by introduction of calcium chloride; test: Antiarrhythmic activity on the model of arrhythmia caused by calcium chloride (antagonism towards calcium); assay type: in vivo, mice; details: for Dose of calcium chloride causing arrhythmia: control 85.0; for Dose of calcium chloride causing heart arrest: control 100.0
Description: In experiments on white mice with a mass of 18-25 g narcotized with urethane an electrocardiogram was recorded in the second standard lead. A 2% solution of calcium chloride was introduced into the tail vein at a constant rate (0.01 ml for 2 seconds). The dose of calcium chloride causing arrhythmia and the dose causing heart arrest were determined. In experimental groups the test compounds were administered 20-40 minutes prior to the beginning of the experiment intraperitoneally.

[8] = system: hemodynamic effects of neoepinephrine; test: Effect on vegetative responses: neoepinephrine; assay type: in vivo, cats; details: neoepinephrine 0.2 μg/kg
Description: (§2) The effect of the compounds according to the present invention on the arterial pressure and vegetative responses has been studied in acute experiments on cats with a mass of 2.8-4.0 kg narcotized by α-glucochloralose (90 mg/kg) and urethane (100 mg/kg intraperitoneally).
(§3) The arterial pressure in the common carotid artery, breathing and electrocardiogram of the second standard lead were recorded.
(§4) The effect of the compounds according to the present invention on hemodynamic effects of acetylcholine (0.1 μg/kg) neoepinephrine (0.2 μg/kg), noradrenaline (1 μg/kg) and histamine (1.5 μg/kg) was also studied. In some experiments instead of neoepinephrine and noradrenaline adrenaline was used (1 μg/kg). The peripheral part of the vagus nerve was irritated by supromaximum square pulses of the frequency of 30 Hz and duration of 0.1 ms.

[9] = system: arterial pressure; test: Effect on the arterial pressure in narcotized cats; assay type: in vivo
Description: as §2, §3, §4

[10] = system: hemodynamic effects of noradrenaline; test: Effect on vegetative responses: noradrenaline; assay type: in vivo, cats; details: noradrenaline 1 μg/kg
Description: as §2, §3, §4

[11] = system: hemodynamic effects of acetylcholine; test: Effect on vegetative responses: acetylcholine; assay type: in vivo, cats; details: dose "-10" [sic] (unit not given); acetylcholine 0.1 μg/kg
Description: as §2, §3, §4

[12] = 30 minutes, 50 mg/kg i.p. (nifedipine 1 mg/kg i.p.)
[13] = 1 hour, 50 mg/kg i.p. (nifedipine 1 mg/kg i.p.)
[14] = 2 hours, 50 mg/kg i.p. (nifedipine 1 mg/kg i.p.)
[15] = 4 hours, 50 mg/kg i.p. (nifedipine 1 mg/kg i.p.)
[16] = after four-days p.o. course, benzyl 40 mg/kg, allyl 50 mg/kg, nifedipine dose not given
[17] = p.o. once a day, benzyl 40 mg/kg, allyl 50 mg/kg, nifedipine dose not given
[18] = p.o., benzyl 40 mg/kg, allyl 50 mg/kg, nifedipine dose not given
[19] = dose "-10" [sic] (unit not given)

**Q.** For `C=CC[N+](C)(C)NCCC(=O)[O-]` [3-(2,2-dimethyl-2-allylhydrazinium)propionate semihydrate], which “Hemodynamic effect, Angiotension” value [1] is on record?
**A.** -70%

**Q.** What about the Systolic arterial pressure ([2]; 3 hours after single p.o.) of the same molecule?
**A.** 153 mm Hg

**Q.** What about the “Systolic arterial pressure, percent in parentheses (decrease from initial)” value ([2]; 3 hours after single p.o.) of the same molecule?
**A.** 17%

**Q.** And the Systolic arterial pressure ([2]; 5 hours after single p.o.)?
**A.** 155 mm Hg

**Q.** What about the “Systolic arterial pressure, percent in parentheses (decrease from initial)” value ([2]; 5 hours after single p.o.) of the same molecule?
**A.** 16%

**Q.** What about the Systolic arterial pressure ([2]; 24 hours after single p.o.) of the same molecule?
**A.** 170 mm Hg

**Q.** And the “Systolic arterial pressure, percent in parentheses (decrease from initial)” value ([2]; 24 hours after single p.o.)?
**A.** 8%

**Q.** What about the “Average variation of the diastolic arterial pressure” value [3, 12] of the same molecule?
**A.** -10 % of the initial

**Q.** And the “Average variation of the systolic arterial pressure” value [3, 12]?
**A.** -12 % of the initial

**Q.** And the “Average variation of the diastolic arterial pressure” value [3, 13]?
**A.** -23 % of the initial

**Q.** What about the “Average variation of the systolic arterial pressure” value [3, 13] of the same molecule?
**A.** -12 % of the initial

**Q.** And the “Average variation of the diastolic arterial pressure” value [3, 14]?
**A.** -29 % of the initial

**Q.** What about the “Average variation of the systolic arterial pressure” value [3, 14] of the same molecule?
**A.** -18 % of the initial

**Q.** What about the “Average variation of the diastolic arterial pressure” value [3, 15] of the same molecule?
**A.** -31 % of the initial

**Q.** And the “Average variation of the systolic arterial pressure” value [3, 15]?
**A.** -14 % of the initial

**Q.** And the “Average variation of the diastolic arterial pressure” value ([3]; 24 hours, 50 mg/kg i.p.)?
**A.** -7 % of the initial

**Q.** And the “Average variation of the systolic arterial pressure” value ([3]; 24 hours, 50 mg/kg i.p.)?
**A.** -3 % of the initial

**Q.** And the LD50 at 336 h [4]?
**A.** 10600 mg/kg

**Q.** What about the “Relative toxicity with respect to quinidine (LD50 / LD50 of quinidine)” value [5] of the same molecule?
**A.** 67.9

**Q.** What about the “Systolic arterial pressure, 5th day” value [6, 16] of the same molecule?
**A.** 126 mm Hg

**Q.** What about the “Systolic arterial pressure, 8th day” value [6, 16] of the same molecule?
**A.** 168 mm Hg

**Q.** And the “Systolic arterial pressure, 10th day” value [6, 16]?
**A.** 175 mm Hg

**Q.** And the “Systolic arterial pressure, 2nd day after administration” value ([6]; p.o. once a day, allyl 50 mg/kg, nifedipine dose not given)?
**A.** 132.8 mm Hg

**Q.** What about the “Systolic arterial pressure, 1st day after administration” value ([6]; p.o. once a day, benzyl 40 mg/kg (initial 195.8), allyl 50 mg/kg (initial 176.6), nifedipine dose not given (initial 184.0)) of the same molecule?
**A.** 150.6 mm Hg

**Q.** What about the “Systolic arterial pressure, 2nd day before administration” value [6, 17] of the same molecule?
**A.** 166.8 mm Hg

**Q.** And the “Systolic arterial pressure, 3rd day after administration” value [6, 17]?
**A.** 118 mm Hg

**Q.** And the “Systolic arterial pressure, 4th day after administration” value [6, 17]?
**A.** 118.6 mm Hg

**Q.** And the “Systolic arterial pressure, 4th day before administration” value [6, 17]?
**A.** 129 mm Hg

**Q.** And the “Percent in parentheses (change of systolic pressure from initial), 2nd day after administration” value ([6]; p.o., allyl 50 mg/kg, nifedipine dose not given)?
**A.** 25%

**Q.** And the “Percent in parentheses (change of systolic pressure from initial), 1st day after administration” value [6, 18]?
**A.** 15%

**Q.** What about the “Percent in parentheses (change of systolic pressure from initial), 2nd day before administration” value [6, 18] of the same molecule?
**A.** 6%

**Q.** What about the “Percent in parentheses (change of systolic pressure from initial), 3rd day after administration” value [6, 18] of the same molecule?
**A.** 33%

**Q.** And the “Percent in parentheses (change of systolic pressure from initial), 4th day after administration” value [6, 18]?
**A.** 33%

**Q.** What about the “Percent in parentheses (change of systolic pressure from initial), 4th day before administration” value [6, 18] of the same molecule?
**A.** 27%

**Q.** What about the “Percent in parentheses (change of systolic pressure from initial), 5th day” value [6, 18] of the same molecule?
**A.** 29%

**Q.** And the “Percent in parentheses (change of systolic pressure from initial), 8th day” value [6, 18]?
**A.** 5%

**Q.** What about the “Dose of calcium chloride causing arrhythmia” value ([7]; compound dose 5 mg/kg i.p.) of the same molecule?
**A.** 99.6

**Q.** And the “Dose of calcium chloride causing heart arrest” value ([7]; compound dose 5 mg/kg i.p.)?
**A.** 118.0

**Q.** What about the “Dose of calcium chloride causing arrhythmia” value ([7]; compound dose 25 mg/kg i.p.) of the same molecule?
**A.** 95.2

**Q.** And the “Dose of calcium chloride causing heart arrest” value ([7]; compound dose 25 mg/kg i.p.)?
**A.** 103.0

**Q.** And the “Hemodynamic effect, Neoepinephrine” value ([8]; dose 5 (unit not given))?
**A.** -20%

**Q.** With `CCCCCCCCCCCCCCCC[N+](C)(C)NCCC(=O)[O-]` [3-(2,2-dimethyl-2-hexadecylhydrazinium)propionate] as the molecule, how does the “Variation of arterial pressure” value ([9]; dose 3 (unit not given)) read?
**A.** -5%

**Q.** What about the “Variation of arterial pressure” value [9, 19] of the same molecule?
**A.** -3%

**Q.** And the LD50 at 336 h [4]?
**A.** 1450 mg/kg

**Q.** And the “Relative toxicity with respect to quinidine (LD50 / LD50 of quinidine)” value [5]?
**A.** 9.3

**Q.** And the “Hemodynamic effect, Noradrenaline” value ([10]; dose 3 (unit not given))?
**A.** -15%

**Q.** What about the “Hemodynamic effect, Noradrenaline” value [10, 19] of the same molecule?
**A.** -80%

**Q.** What about the “Dose of calcium chloride causing arrhythmia” value ([7]; compound dose 5 mg/kg i.p.) of the same molecule?
**A.** 130.5

**Q.** What about the “Dose of calcium chloride causing heart arrest” value ([7]; compound dose 5 mg/kg i.p.) of the same molecule?
**A.** 140.6

**Q.** What about the “Dose of calcium chloride causing arrhythmia” value ([7]; compound dose 25 mg/kg i.p.) of the same molecule?
**A.** 102.7

**Q.** And the “Dose of calcium chloride causing heart arrest” value ([7]; compound dose 25 mg/kg i.p.)?
**A.** 124.5

**Q.** What about the “Variation of the effect of acetylcholine” value [11] of the same molecule?
**A.** -10%

**Q.** What about the “Hemodynamic effect, Neoepinephrine” value ([8]; dose 3 (unit not given)) of the same molecule?
**A.** -10%

**Q.** And the “Hemodynamic effect, Neoepinephrine” value [8, 19]?
**A.** -30%
